# Assay results reported in US20220397567A1, “NOVEL APPROACH FOR INCREASING CONTRACTILITY IN PATIENTS WITH SYSTOLIC HEART FAILURE” (THE TRUSTEES OF COLUMBIA UNIVERSITY IN THE CITY OF NEW YORK, priority 2019, published 2022).
# Values joined by “and” are separate entries in the source; they are usually repeats but may differ in a detail not shown here. Equal entries are not always repeated. “Also recorded” adds a separate entry of the source.
# Key:
# [1] = system: CaV1.2 (α1C+β2B) channels in HEK293T cells; experiment: Perforated whole-cell patch clamp of Ba2+ current, forskolin stimulation of CaV1.2 reconstituted in HEK293T cells; format: cell-based, rabbit α1C, human β2B, mouse Rad
# Text: The robust heterologous reconstitution of PKA regulation of L-type Ca^2+ currents has been long pursued as a crucial step. […] To preserve the normal intracellular milieu and signaling cascades, the inventors used perforated, whole-cell patch clamp to assess function. The inventors used Ba^2+ as the charge carrier to minimize inactivation and depolarized the membrane potential with either a voltage step to 0 mV or a voltage ramp from −60 mV to +60 mV.
# In the above, with regard to clone construction and cell culture, all mouse N-terminal-GFP-tagged mouse Rad (accession #XM_006531206) constructs in a pEGFP-C1 vector were generated by gene-synthesis (Gene Universal). The human CaV2.2 (pSAD442-1) was a gift from Diane Lipscombe (Addgene plasmid #62574). HEK293T cells were cultured in DMEM with 10% FBS, 1% Pen/Strep, and transfected with 3 μg rabbit α1C (accession #X15539) or α1B (for CaV2.2 experiments), 3 μg human β2B (NM-201590.3) and 0.5 μg N-terminal-GFP-tagged mouse Rad using Lipofectamine 2000 (Thermo Fisher Scientific). The media was changed 4-6 hours after transfection. The cells were split onto coverslips coated with attachment factor protein (Gibco). Electrophysiological recordings were carried out at room temperature 24-48 hours after transfection.
# For HEK293T cell experiments involving the forskolin-induced stimulation of CaV1.2 and CaV2.2 currents, perforated whole-cell patch clamp technique was implemented to minimize current run-down and preserve the intracellular milieu. Amphotericin B (Sigma A9528) was initially dissolved in DMSO (20 mg/ml) and used in the pipette solution at a final concentration of 200 μg/ml. The tip of the pipette was filled with amphotericin-free solution (in mM): 80 Cesium Gluconate, 40 CsCI, 10 HEPES, 10 BAPTA, 1 MgCl2, 1 Mg-ATP, pH adjusted to 7.2 with CsOH. The pipette was backfilled with (in mM): 125 CsCI, 10 HEPES, 4 CaCl2, 1 MgCl2, pH-7.2 with CsOH; containing amphotericin, 200 μg/ml. CaCl2 (4 mM) was added to the intracellular patch electrode solution to enable the detection of conversion from perforated to ruptured configuration. The external solution contained (in mM): 130 tetraethylammonium methanesulfonate, 10 HEPES, 1 MgCl2, 10 (with Rad expression) or 2 (without Rad expression) BaCI2, 5 Glucose, pH adjusted to pH 7.4 with CsOH. For experiments with HEK293T cells, in addition to step protocols, we used a ramp protocol with a 200 ms voltage ramp from −60 mV (or −70 mV for CaV1.3) to +60 mV applied every 10 s- to monitor the near-steady-state I-V relationship. All experiments were performed at room temperature, 22±1° C. Cells were selected based on co-transfection of a vector containing GFP in the absence of Rad, and GFP-conjugated Rad for the experiments with Rad transfected. For both cardiomyocytes and HEK293 cells, cells without a stable baseline (potentially due to run-down or run-up) were not studied.
# The voltage steps protocol used in cardiomyocytes studies evaluated IIpeak=Ipeak (V), which was recalculated in […] to G=G(V) as G=I/(V−Erev). For HEK cells experiments, the inventors used a ramp protocol (FIG. 17B). The experimental records were I=I(t), where t=time. The inventors transformed these records to I=I(V), which were then further transformed to G=G(V) in […] (FIG. 17B).
# [2] = system: CaV1.3 (α1D+β2B) channels in HEK293T cells; experiment: Perforated whole-cell patch clamp of Ba2+ current, forskolin stimulation of CaV1.3 in HEK293T cells; format: cell-based; details: cells expressing α1D+β2B+Rad
# Method: In adrenal chromaffin cells and the sinus node cells of the heart, L-type CaV1.3 channels are robustly stimulated by PKA. […] Thus, like CaV1.2, Rad is the missing ingredient. For HEK293T cell experiments involving the forskolin-induced stimulation of CaV1.2 and CaV2.2 currents, perforated whole-cell patch clamp technique was implemented to minimize current run-down and preserve the intracellular milieu. Amphotericin B (Sigma A9528) was initially dissolved in DMSO (20 mg/ml) and used in the pipette solution at a final concentration of 200 μg/ml. The tip of the pipette was filled with amphotericin-free solution (in mM): 80 Cesium Gluconate, 40 CsCI, 10 HEPES, 10 BAPTA, 1 MgCl2, 1 Mg-ATP, pH adjusted to 7.2 with CsOH. The pipette was backfilled with (in mM): 125 CsCI, 10 HEPES, 4 CaCl2, 1 MgCl2, pH-7.2 with CsOH; containing amphotericin, 200 μg/ml. CaCl2 (4 mM) was added to the intracellular patch electrode solution to enable the detection of conversion from perforated to ruptured configuration. […] For experiments with HEK293T cells, in addition to step protocols, we used a ramp protocol with a 200 ms voltage ramp from -60 mV (or -70 mV for CaV1.3) to +60 mV applied every 10 s- to monitor the near-steady-state I-V relationship. All experiments were performed at room temperature, 22±1° C. Cells were selected based on co-transfection of a vector containing GFP in the absence of Rad, and GFP-conjugated Rad for the experiments with Rad transfected. For both cardiomyocytes and HEK293 cells, cells without a stable baseline (potentially due to run-down or run-up) were not studied. The voltage steps protocol used in cardiomyocytes studies evaluated […]), which was recalculated in […] to G=G(V) as […]). For HEK cells experiments, the inventors used a ramp protocol (FIG. 17B). The experimental records were I=I(t), where t=time. The inventors transformed these records to I=I(V), which were then further transformed to G=G(V) in […]). The parameters of voltage-dependent activation were obtained using a modified Boltzmann distribution. […]
# [3] = system: CaV2.2 (α1B+β2B) channels in HEK cells; experiment: Perforated whole-cell patch clamp of Ba2+ current, forskolin stimulation of CaV2.2 in HEK cells; format: cell-based, human
# Text: N-type Ca^2+ channels (CaV2.2) are widely expressed, play an essential role in neurotransmitter release, and are targets for the development of drugs to relieve chronic pain. The inventors expressed the CaV2.2 α1B subunit with β2B and Rad in HEK cells. […] Attenuating binding of Rad […] prevented the forskolin-induced modulation of CaV2.2 current (FIG. 19F). In the above, with regard to clone construction and cell culture, all mouse N-terminal-GFP-tagged mouse Rad (accession #XM_006531206) constructs in a pEGFP-C1 vector were generated by gene-synthesis (Gene Universal). The human CaV2.2 (pSAD442-1) was a gift from Diane Lipscombe (Addgene plasmid #62574). […] The media was changed 4-6 hours after transfection. The cells were split onto coverslips coated with attachment factor protein (Gibco). Electrophysiological recordings were carried out at room temperature 24-48 hours after transfection. For HEK293T cell experiments involving the forskolin-induced stimulation of CaV1.2 and CaV2.2 currents, perforated whole-cell patch clamp technique was implemented to minimize current run-down and preserve the intracellular milieu. Amphotericin B (Sigma A9528) was initially dissolved in DMSO (20 mg/ml) and used in the pipette solution at a final concentration of 200 μg/ml. The tip of the pipette was filled with amphotericin-free solution (in mM): 80 Cesium Gluconate, 40 CsCI, 10 HEPES, 10 BAPTA, 1 MgCl2, 1 Mg-ATP, pH adjusted to 7.2 with CsOH. The pipette was backfilled with (in mM): 125 CsCI, 10 HEPES, 4 CaCl2, 1 MgCl2, pH-7.2 with CsOH; containing amphotericin, 200 μg/ml. CaCl2 (4 mM) was added to the intracellular patch electrode solution to enable the detection of conversion from perforated to ruptured configuration. […] For experiments with HEK293T cells, in addition to step protocols, we used a ramp protocol with a 200 ms voltage ramp from -60 mV (or -70 mV for CaV1.3) to +60 mV applied every 10 s- to monitor the near-steady-state I-V relationship. All experiments were performed at room temperature, 22±1° C. Cells were selected based on co-transfection of a vector containing GFP in the absence of Rad, and GFP-conjugated Rad for the experiments with Rad transfected. For both cardiomyocytes and HEK293 cells, cells without a stable baseline (potentially due to run-down or run-up) were not studied. The voltage steps protocol used in cardiomyocytes studies evaluated […]), which was recalculated in […] to G=G(V) as […]). For HEK cells experiments, the inventors used a ramp protocol (FIG. 17B). The experimental records were I=I(t), where t=time. The inventors transformed these records to I=I(V), which were then further transformed to G=G(V) in […]). The parameters of voltage-dependent activation were obtained using a modified Boltzmann distribution. […]
# [4] = system: CaV1.2 channels in cardiomyocytes; experiment: Whole-cell patch clamp of nisoldipine-insensitive Ca2+ current in cardiomyocytes of transgenic mice; format: cell-based, mouse
# Text: With regard to the isolation of adult cardiac myocytes, mice ventricular myocytes were isolated by enzymatic digestion using a Langendorff perfusion apparatus. Cardiomyocytes were isolated from 8-12 week-old non-transgenic and transgenic mice.
# With regard to whole cell patch clamp electrophysiology, isolated cardiomyocytes or HEK cells on glass 8×8 mm coverslips were placed in Bioptechs Delta T Dishes filled with solution containing (in mM): 112 NaCl, 5.4 KCl, 1.7 NaH2PO4. 1.6 MgCl2, 20.4 HEPES (pH 7.2), 30 Taurine, 2 DL-Carnitine, 10.3 Creatine, 5.4 Glucose. The petri dishes were mounted on the stage of an inverted microscope and served as a perfusion chamber. After establishing a seal and achieving whole-cell configuration, external solutions were changed by fast local perfusion method.
# For cardiomyocytes, pipette resistance was between 1-3 ma Membrane currents were measured by conventional (ruptured) whole-cell patch-clamp method using a MultiClamp 700B or Axopath200B amplifier and pCLAMP 10.7 software (Molecular Devices). Capacitance transients and series resistance were compensated. Voltage was corrected for liquid junction potential (−10 mV) during analysis. Leak currents were subtracted by a P/4 protocol. […]
# [5] = system: CaV1.2 neighbourhood proteins (Rad, PKA catalytic subunit, Sorbs2); experiment: APEX2 proximity labeling with TMT SPS MS3 in isolated cardiomyocytes, isoproterenol vs. no isoproterenol; format: cell-based, mouse; details: for decrease in Rad (proximity labeling, iso vs. no iso) / increase in PKA catalytic subunit (proximity labeling, iso vs. no iso): 1 μM isoproterenol, 10 minutes
# Method: Thus, proximity-labeling in cardiomyocytes treated with isoproterenol was compared to untreated controls. Cardiomyocytes were enzymatically isolated from two α1C-APEX2 mice, mixed, loaded with biotin-phenol and exposed to isoproterenol or vehicle for 10 minutes at room temperature. For the final minute, labeling was initiated with H2O2. This was repeated for myocytes from 4 additional sets of mice (total: 5 sets of biological replicates; 10 mice). Biotinylated proteins were purified and detected using TMT SPS MS^3. The isobaric labeling allowed simultaneous quantification of all proteins measured rather than just a select subset, thus enabling statistical analysis of relative enrichment between vehicle and isoproterenol treatment. Candidates in the upper left quadrant have reduced labeling (likely indicating reduced proximity) after isoproterenol and candidates in the upper right quadrant have increased labeling (likely indicating increased proximity) after isoproterenol. Mitochondrial/nuclear proteins were removed from the analysis.
# For the proximity labeling, isolated ventricular cardiomyocytes were incubated in labeling solution with 0.5 μM biotin-phenol (Iris-biotech) for 30 minutes. During the final 10 minutes of labeling, 1 μM isoproterenol (Sigma 15627) was added. To initiate labeling, H2O2 (Sigma H1009) was added to a final concentration of 1 mM for 1 min Exactly 1 minute after H2O2 treatment, the cells were washed three times with cold quenching solution containing (in mM) 10 Sodium ascorbate (VWR 95035-692), 5 Trolox (Sigma 238813), and 10 Sodium azide (Sigma S2002). After the cells were harvested by centrifugation, the quenching solution was aspirated and the pellet was flash-frozen and stored at −80° C. until streptavidin pull-down.
# With regard to the processing of biotinylated proteins for mass spectrometry, proteins were precipitated with Trichloroacetic acid (TCA; Sigma T9159) and then centrifuged at 21,130×g at 4° C. for 10 minutes. The pellet was washed with −20° C. cold acetone (Sigma 650501), vortexed, and centrifuged at 21,130×g at 4° C. for 10 minutes. Following centrifugation, acetone was aspirated and the pellet was acetone-washed again three more times.
# [6] = system: Rad in CaV1.2 neighbourhood; experiment: APEX2 proximity labeling with TMT mass spectrometry in Langendorff-perfused α1C-APEX2 hearts; design: species or system mouse; details: Langendorff-perfused α1C-APEX2 whole hearts; 1 μM isoproterenol, 5 minutes
# Method: The inventors also probed the impact of isoproterenol on the CaV1.2 proteome signature in Langendorff-perfused whole hearts (FIG. 9B), tracking 2,610 proteins from 10 hearts in parallel (FIG. 6K, FIG. 15C and FIG. 16A). The inventors monitored phospholamban phosphorylation to confirm that the β-adrenergic signaling pathway in cardiomyocytes is preserved in the presence of biotin-phenol and H2O2 (FIG. 14C and FIG. 14D).
# For biotinylation in Langendorff-perfused hearts, mice were injected with 5 mg/kg propranolol-HCl (Sigma PHR1308) to suppress adrenergic stimulation during the isoflurane anesthesia and cardiectomy. Hearts were retrograde perfused with Krebs' solution for 10 minutes prior to addition of biotin-phenol for 15 minutes. During the final 5 minutes, 1 μM Isoproterenol (Sigma 1351005) or vehicle was added to the perfusate. The hearts were then perfused with 1 mM H2O2 for 1 minute, followed by 3-minutes of perfusion of quenching solution. Electrocardiograms were monitored throughout the experiment to ensure viability of the preparation and an isoproterenol-induced increase in heart rate. […]
# Rad = experiment: Whole cell proteomics (TMT SPS MS3) of non-transgenic cardiomyocytes, isoproterenol vs. no isoproterenol; format: cell-based, mouse; details: non-transgenic (NTG) mice cardiomyocytes; 10-minute isoproterenol
# Method: With regard to whole cell proteomics, specifically cell lysis, protein digest and TMT labeling mass spectrometry analysis, the cells were lysed by homogenization (QIAshredder cartridges, Qiagen) in lysis buffer (2% SDS, 150 mM NaCl, 50 mM Tris pH 7.4). Lysates were reduced with 5 mM DTT, alkylated with 15 mM iodoacetamide for 30 minutes in the dark, alkylation reactions quenched with freshly prepared DTT added to a concentration of 50 mM and proteins precipitated by methanol/chloroform precipitation. Digests were carried out in 1M urea freshly prepared in 200 mM EPPS pH 8.5 in presence of 2% acetonitrile (v/v) with LysC (Wako, 2 mg/ml, used 1:75 w/w protease:substrates during digest) for 3 hours at room temperature and after subsequent addition of trypsin (Promega #V5111, stock 1:100 w/w protease:substrates) over night at 37° C. Missed cleavage rate was assayed from a small aliquot by mass spectrometry. […]
# For the mass spectrometry analysis, data collection followed a MultiNotch MS^3 TMT method using an Orbitrap Lumos mass spectrometer coupled to a Proxeon EASY-nLC 1200 liquid chromatography (LC) system (both Thermo Fisher Scientific). […] In order to obtain quantitative information, MS^3 precursors were fragmented by high-energy collision-induced dissociation (HCD) and analyzed in the Orbitrap at a resolution of 50,000 at 200 Th. […]
# [7] = system: CFP-tagged Rad localization in cardiomyocytes; experiment: Confocal fluorescence of CFP-Rad at membrane and in cytosol of cardiomyocytes before and after isoproterenol; format: cell-based; details: CFP-Rad adenovirus-infected rat cardiomyocytes; 5 minutes after superfusion
# Text: Mass spectrometry identified phosphorylated proteins from biotinylated, streptavidin-purified samples from APEX2 mice, and from whole hearts of wild-type (WT) mice treated with isoproterenol. […] Rad, a member of the RGK family of GTP-binding proteins, is an inhibitor of voltage-gated Ca^2+ channels and is also a PKA target. […] To further explore whether β-agonists can alter membrane-localization of Rad relative, rat cardiomyocytes were infected with adenoviruses harboring cyan fluorescent protein (CFP)-tagged Rad. The fluorescence of CFP-Rad at the membrane and in the cytosol was quantified before and after isoproterenol. The number of exposures were limited to avoid photo-bleaching.
# [8] = HEK cells expressing 35-mutant α1C+28-mutant β2B+Rad
# [9] = cells expressing α1C+β2B+Rad, forskolin vs. no forskolin
# [10] = CaV2.2 α1B+β2B co-expressed with Rad
# [11] = CaV2.2 α1B+β2B co-expressed with Rem
smiles,measurement,setting,value
C=C[C@@]1(C)CC(=O)[C@]2(O)[C@@]3(C)[C@@H](O)CCC(C)(C)[C@@H]3[C@H](O)[C@H](OC(C)=O)[C@@]2(C)O1 [forskolin],"increase of Gmax, as much as",[1]; [8],≤ 3.1 fold
same,"increase of Gmax, mean",[1]; [8],1.9 fold
same,shift of V50 for activation,[1]; [8],−3.3 mV
same,"increase of Gmax, mean","[1]; cells expressing 9*-α1C, β2B and Rad",1.6 fold
same,shift of V50 for activation,[1]; cells expressing α1C+β2B+Rad,−5 mV
same,"increase of maximal conductance (Gmax), as much as",[1]; [9],≤ 4.5 fold
same,"increase of maximal conductance (Gmax), mean",[1]; [9],1.5 fold and 1.6 fold
same,"increase of Gmax, as much as",[2],≤ 2.3 fold
same,"increase of Gmax, mean",[2],1.9 fold
same,shift of V50 for activation,[2],−4.3 mV
same,"increase of Gmax, mean",[3]; [10],2.2 fold
same,shift of V50 for activation,[3]; [10],−3.7 mV
same,increase of Gmax,[3]; [11],1.6 fold
same,shift of V50 for activation,[3]; [11],−4.2 mV
same,"increase of Gmax, mean",[4]; 9* exon-containing CaV1.2 channels,1.4 fold
same,"increase of nisoldipine-insensitive maximal conductance (Gmax), mean","[4]; transgenic pWT α1C cardiomyocytes, 10 μM forskolin",1.4 fold
CC(C)NCC(O)c1ccc(O)c(O)c1 (centres unmarked) [isoproterenol],"decrease in the amount of Rad, all three approaches",[5]; α1C-APEX2 and β2B-APEX2 cardiomyocytes and α1C-APEX2 whole hearts,30-50%
same,"decrease in Rad (proximity labeling, iso vs. no iso)",[5]; α1C-APEX2 cardiomyocytes,~50%
same,"increase in PKA catalytic subunit (proximity labeling, iso vs. no iso)",[5]; α1C-APEX2 cardiomyocytes,50%
same,reduction in Sorbin and SH3 domain containing 2 (Sorbs2),"[5]; α1C-APEX2 cardiomyocytes, isoproterenol 10 minutes",~57%
same,"decrease in Rad (proximity labeling, iso vs. no iso)",[5]; β2B-APEX2 cardiomyocytes,30%
same,"increase in PKA catalytic subunit (proximity labeling, iso vs. no iso)",[5]; β2B-APEX2 cardiomyocytes,68%
same,"decrease in Rad (proximity labeling, iso vs. no iso)",[6],36%
same,"effect on the amount of Rad (whole-cell, not proximity labeled)",Rad,no significant effect; also recorded: unchanged
same,decrease of Rad localized at the membrane,[7],21%±3%
same,increase of cytosolic Rad,[7],20%±5%
